What was measured:
Sprague Dawley rats = experiment: cocaine induced dopamine surge in nucleus accumbens (FIG. 3); conditions: vigabatrin 300 mg/kg single dose
Sprague-Dawley rats [1] = conditions: vigabatrin, Ashby et al. 1999; cited from earlier work
human brain GABA = conditions: after a single dose; cited from earlier work
Mice [2] = experiment: subcutaneous picrotoxin (scPIC); type: in vivo; conditions: Single IP drug dose, 2.5 mg/kg PIC; up to 100 mg/kg
Protocol: Bicuculline (Bic) and Picrotoxin (Pic) are chemoconvulsants that cause clonic seizures in a manner similar to Metrazol (see scMET test). […] Therefore, as much as possible it is useful to differentiate novel AEDs pharmacologically. […]. At a previously determined time of peak effect (TPE), the animals are given a subcutaneous injection of either of the noted chemo-convulsants using the convulsive dose (CD97—a dose of 2.7 or 2.5 mg/kg, for Bic and Pic, respectively). The experimental animals are placed in isolation cages to minimize possible crowding stresses (Swinyard et al., 1961) and observed for the next 30 minutes (for Bic) or 45 minutes (for Pic) for the presence or absence of a seizure. An episode of clonic spasms, approximately 3-5 seconds, of the fore and/or hindlimbs, jaws, or vibrissae is used as the experimental endpoint.

patients = conditions: cited from earlier work
Mice [3] = experiment: minimal clonic seizure (6 Hz) test; type: in vivo; conditions: Single IP drug dose, 3 seconds; for ED50: Mus musculus, ip; for ED50 / 6 Hz TPE: corneal electrode
Description: Some clinically useful AEDs are ineffective in the standard MES and scMET tests but still have anticonvulsant activities in vivo. In order to identify potential AEDs with this profile, compounds may be tested in the minimal clonic seizure (6 Hz or ‘psychomotor’) test (Barton et al., 2001). […] Test compounds are pre-administered to mice via i.p. injection. At varying times, individual mice (four per time point) are challenged with sufficient current delivered through corneal electrodes to elicit a psychomotor seizure in 97% of animals (32 mA for 3 s) (Toman et al., 1952). Untreated mice will display seizures characterized by a minimal clonic phase followed by stereotyped, automatistic behaviors described originally as being similar to the aura of human patients with partial seizures. Animals not displaying this behavior are considered protected. The test may be evaluated quantitatively by measuring the responses at varying doses at a determined time of peak effect (TPE). This test may also be conducted at 22 and 44 mA if requested by ASP staff.

Rat = experiment: subcutaneous Metrazol seizure threshold test (scMET); type: in vivo; conditions: 7 days IP, at 600 mg/kg, Metrazol 70 mg/kg
Protocol: (§1) Subcutaneous injection of the convulsant Metrazol produces clonic seizures in laboratory animals. […] Animals are pretreated with various doses of the test compound given by i.p. injection. At the previously determined TPE of the test compound, the dose of Metrazol which will induce convulsions in 97% of animals (CD97; 85 mg/kg mice) is injected into a loose fold of skin in the midline of the neck. The animals are placed in isolation cages to minimize stress (Swinyard et al, 1961) and observed for the next 30 minutes for the presence or absence of a seizure. An episode of clonic spasms, approximately 3-5 seconds, of the fore and/or hindlimbs, jaws, or vibrissae is taken as the endpoint.

Mice [4] = experiment: as above; type: in vivo; conditions: Single IP drug dose, Metrazol 85 mg/kg; up to 1500 mg/kg
Protocol: as §1

Mice [5] = experiment: corneal kindling; type: in vivo; conditions: Single IP drug dose, 3 secs; for ED50: read-out: Corn. Kind. ED50
Description: Mice are kindled electrically with 3 sec stimulation, 8 mA, 60 Hz, and corneal electrodes to a criterion of 10 consecutive Stage 5 seizures (facial clonus and head nodding progressing to forelimb clonus, and finally rearing and falling accompanied by a generalized clonic seizure as described by Racine). Stage 5 is generally reached after twice daily stimulation for 8 days. With continued stimulation once a day, animals usually progress to a reproducible Stage 5 after 10-14 additional days. At least 72 hours after the mice have been kindled, the test substance is administered either i.p. or p.o. and, at the previously determined TPE, each animal is given the electrical stimulus indicated above. Following stimulation, the animals are observed for the presence or absence of the rearing and falling criteria of a Stage 5 seizure. Treated animals not displaying a Stage 3, 4, or 5 seizure are considered protected. The dose of the test substance is varied between the limits of 0 and 100% efficacy, and the ED50 (mean effective dose) and 95% confidence intervals calculated by probit analysis. Mean values and the S.E.M. are calculated for the length of clonus and seizure duration and p values are determined by the Student's t-test

humans = conditions: trial of 103 subjects, cocaine dependence; cited from earlier work
Sprague-Dawley rats [6] = conditions: vigabatrin, earlier work; cited from earlier work
[7] = biological target: γ-aminobutyric acid aminotransferase (GABA-AT) (Sus scrofa, UniProt P80147); conditions: cited from earlier work
γ-aminobutyric acid aminotransferase (GABA-AT), sequence (P80147 29-500): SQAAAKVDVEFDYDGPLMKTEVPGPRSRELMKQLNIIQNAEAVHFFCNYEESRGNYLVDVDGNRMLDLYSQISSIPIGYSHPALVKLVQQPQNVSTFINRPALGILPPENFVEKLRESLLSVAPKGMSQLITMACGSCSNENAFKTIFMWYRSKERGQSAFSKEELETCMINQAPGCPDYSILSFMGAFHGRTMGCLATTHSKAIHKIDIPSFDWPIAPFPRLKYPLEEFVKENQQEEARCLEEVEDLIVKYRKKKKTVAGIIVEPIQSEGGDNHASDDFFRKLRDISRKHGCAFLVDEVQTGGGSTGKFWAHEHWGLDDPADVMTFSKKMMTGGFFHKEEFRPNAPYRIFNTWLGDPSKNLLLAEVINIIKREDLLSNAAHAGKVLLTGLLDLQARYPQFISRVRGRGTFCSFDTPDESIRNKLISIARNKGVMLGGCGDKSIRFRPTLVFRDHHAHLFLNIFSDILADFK

hGAT-3 = biological target: T1, hGAT-3 (Homo sapiens, UniProt P48066); conditions: data from Kvist et al. 2009; read-out: hGAT-3 uptake IC50; cited from earlier work
T1 construct: expressed in transfected cells; host or cells: tsA201 cells, transient (PolyFect)
T1 sequence (P48066 whole entry): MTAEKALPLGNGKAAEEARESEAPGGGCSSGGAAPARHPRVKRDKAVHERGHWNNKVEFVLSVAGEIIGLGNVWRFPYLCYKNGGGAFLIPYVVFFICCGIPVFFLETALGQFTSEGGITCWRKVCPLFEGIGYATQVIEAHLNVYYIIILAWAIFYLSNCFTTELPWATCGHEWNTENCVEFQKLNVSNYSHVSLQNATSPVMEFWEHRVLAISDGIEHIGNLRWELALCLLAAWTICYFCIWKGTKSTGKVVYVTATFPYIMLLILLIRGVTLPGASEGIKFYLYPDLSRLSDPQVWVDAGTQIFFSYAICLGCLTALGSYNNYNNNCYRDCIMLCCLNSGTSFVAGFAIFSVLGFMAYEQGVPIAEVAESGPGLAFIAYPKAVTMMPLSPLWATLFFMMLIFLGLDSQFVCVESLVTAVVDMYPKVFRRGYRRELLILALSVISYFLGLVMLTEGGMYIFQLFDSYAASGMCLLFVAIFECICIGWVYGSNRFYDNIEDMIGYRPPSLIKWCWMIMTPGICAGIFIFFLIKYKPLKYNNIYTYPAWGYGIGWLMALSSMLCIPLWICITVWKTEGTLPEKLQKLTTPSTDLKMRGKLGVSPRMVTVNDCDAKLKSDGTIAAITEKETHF

hGAT-2 = biological target: T2, hGAT-2 (Homo sapiens, UniProt Q9NSD5); conditions: data from Kvist et al. 2009; read-out: hGAT-2 uptake IC50; cited from earlier work
T2 construct: expressed in transfected cells; host or cells: tsA201 cells, transient (PolyFect)
T2 sequence (Q9NSD5 whole entry): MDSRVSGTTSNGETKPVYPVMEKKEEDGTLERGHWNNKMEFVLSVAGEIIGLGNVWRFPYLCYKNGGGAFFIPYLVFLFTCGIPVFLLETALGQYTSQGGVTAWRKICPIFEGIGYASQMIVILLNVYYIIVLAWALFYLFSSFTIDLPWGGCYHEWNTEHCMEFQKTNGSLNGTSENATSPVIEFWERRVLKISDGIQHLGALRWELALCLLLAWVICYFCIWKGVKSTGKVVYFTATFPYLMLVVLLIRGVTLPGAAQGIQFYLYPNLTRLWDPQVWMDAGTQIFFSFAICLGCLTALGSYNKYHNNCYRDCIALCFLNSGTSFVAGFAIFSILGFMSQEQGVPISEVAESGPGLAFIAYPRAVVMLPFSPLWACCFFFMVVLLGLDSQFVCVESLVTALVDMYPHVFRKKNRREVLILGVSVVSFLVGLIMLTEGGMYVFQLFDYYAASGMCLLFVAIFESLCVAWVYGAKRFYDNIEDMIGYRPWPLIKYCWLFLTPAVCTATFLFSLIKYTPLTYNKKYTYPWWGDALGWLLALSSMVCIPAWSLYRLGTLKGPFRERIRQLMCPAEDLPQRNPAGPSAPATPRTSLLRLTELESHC

mGAT2 = biological target: T3, mGAT2 (Mus musculus, UniProt P31651); conditions: data from Bolvig et al. 1999; read-out: mGAT2 uptake IC50; cited from earlier work
T3 construct: expressed in transfected cells
T3 sequence (P31651 whole entry): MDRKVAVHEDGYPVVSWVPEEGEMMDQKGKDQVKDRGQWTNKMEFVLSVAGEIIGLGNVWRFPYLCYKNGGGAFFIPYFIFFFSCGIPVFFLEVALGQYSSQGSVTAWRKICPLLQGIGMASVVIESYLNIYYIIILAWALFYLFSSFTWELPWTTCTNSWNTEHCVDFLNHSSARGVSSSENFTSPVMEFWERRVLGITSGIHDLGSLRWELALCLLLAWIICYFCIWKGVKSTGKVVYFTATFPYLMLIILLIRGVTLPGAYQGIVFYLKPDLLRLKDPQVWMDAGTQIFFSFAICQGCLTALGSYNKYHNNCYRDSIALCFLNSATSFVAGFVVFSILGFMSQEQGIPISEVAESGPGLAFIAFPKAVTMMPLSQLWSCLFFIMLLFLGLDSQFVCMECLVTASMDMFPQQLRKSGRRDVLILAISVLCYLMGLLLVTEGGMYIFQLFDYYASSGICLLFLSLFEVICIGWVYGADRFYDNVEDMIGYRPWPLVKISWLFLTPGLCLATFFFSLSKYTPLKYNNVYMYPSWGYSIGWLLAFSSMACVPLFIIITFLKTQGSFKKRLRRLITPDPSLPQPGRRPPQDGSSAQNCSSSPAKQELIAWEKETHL

human ρ1 GABAC receptors = biological target: T4, human ρ1 GABAC receptors (Homo sapiens, UniProt P24046); experiment: GABAC receptor two-electrode voltage clamp in Xenopus laevis oocytes; type: cell-based; conditions: GABA 1 μM (EC80), clamped at −60 mV
T4 construct: expressed in transfected cells; host or cells: Xenopus laevis oocytes injected with ρ1 mRNA
T4 sequence (P24046 21-479 limits assumed): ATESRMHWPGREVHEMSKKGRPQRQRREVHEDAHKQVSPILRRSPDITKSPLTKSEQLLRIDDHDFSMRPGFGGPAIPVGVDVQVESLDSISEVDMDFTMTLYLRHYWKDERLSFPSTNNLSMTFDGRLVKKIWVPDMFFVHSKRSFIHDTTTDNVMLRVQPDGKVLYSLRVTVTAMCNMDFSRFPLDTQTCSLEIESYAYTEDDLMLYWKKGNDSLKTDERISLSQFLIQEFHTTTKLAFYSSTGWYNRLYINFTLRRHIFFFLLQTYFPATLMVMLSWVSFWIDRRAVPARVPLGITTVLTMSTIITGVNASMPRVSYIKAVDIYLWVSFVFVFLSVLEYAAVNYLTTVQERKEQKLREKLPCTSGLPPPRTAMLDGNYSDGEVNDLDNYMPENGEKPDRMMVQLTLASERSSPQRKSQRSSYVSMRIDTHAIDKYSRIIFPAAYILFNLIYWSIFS
Protocol: Human ρ1 cDNA encapsulated in pcDNA1.1 was linearized with Not1. Linearized cDNA was transcribed to mRNA using the T7 “mMESSAGE mMACHINE” kit (Ambion Inc. Austin, Tex., USA) as previously described. […] Eur. J. Pharmacol. 2001, 430, 185-192. GABAC receptor activity assays were performed in oocytes harvested from Xenopus laevis (housed in the Department of Veterinary Science at the University of Sydney) and defolliculated. The oocytes were stored in ND96 solution (in mM) NaCl (96), KCl (2), MgCl2 (1), CaCl2 (1.8), HEPES (hemi-Na salt; 5) supplemented with sodium pyruvate (2.5), theophylline (0.5), and 50 μg/ml^−1 gentamycin for 2-5 days post-injection.
Electrophysiological methods were performed as previously described. Hertz L, Juurlink B H J, Hertz E, Fosmark H and Schousboe A. Preparation of Primary Cultures of Mouse (Rat) Astrocytes, in A Dissection and Tissue Culture Mnual of the Nervous System (Shahar A, de Vellis J, Vernadakis A and Haber B eds) pp 105-108, Alan R. Liss, Inc., New York, 1989 Stage V-VI oocytes were injected with 10 ng 50 nl^−1 of ρ1 mRNA and then stored at 16° C. Recordings of receptor activity were obtained for 2-5 days by a two-electrode voltage clamp by means of a Geneclamp 500 amplifier (Axon Instruments Inc., Foster City, Calif.), a MacLab 2e recorder (AD Instruments, Sydney, NSW), and Chart version 3.6.3 program. Oocytes were voltage clamped at −60 mV, and the preparation was continually perfused with ND96 solution at room temperature. […] Compound 2 (CPP-115) was tested on three oocytes from at least two harvests.

Sprague-Dawley rats [8] = conditions: saline/cocaine pairings, cocaine 20 mg/kg i.p.
Sprague-Dawley rats [9] = experiment: μPET imaging of 11C-raclopride binding after cocaine; conditions: cocaine 5 mg/kg intravenous, average, preliminary

Compound: C=CC(N)CCC(=O)O (centres unmarked) [Vigabatrin, γ-vinyl GABA, reference compound]
- dopamine increase after cocaine challenge (Sprague Dawley rats): > 300% of baseline
- dose effective previously against cocaine-induced dopamine increase (Sprague-Dawley rats [1]): 300 mg/kg
- brain GABA levels (human brain GABA): remain substantially elevated for several days
- scPIC protection (Mice [2]): Minimal protection up
- share of patients affected with visual field defects (patients; after multiple years of therapy): One third or more of patients
- patients with visual field defects (patients; following chronic administration): 25-50%
- occurrence of visual field defect (patients; shorter duration exposure, stimulant addiction studies): does not show any occurrence of visual field defect
- time after initiation of therapy at which visual field defects were detectable (patients; some patients): less than 2 months
- ED50 (Mice [3]; 32 mA): 23.4 mg/kg
- ED50 (Mice [3]; 44 mA): 154 mg/kg
- 6 Hz protection (Mice [3]; 22 mA, all times @ 100 mg/kg): “good protection” @
- 6 Hz TPE (Mice [3]; 32 mA): TPE 4 hours
- 6 Hz TPE (Mice [3]; 44 mA): TPE 4 hours
- scMET protection (Rat): 75% protection at 600
- scMET protection (Mice [4]): Minimal protection up
- ED50 (Mice [5]; 192 h, primed @ 8 mA, 60 Hz, for 8 days): 80.4 mg/kg
- ED50 (Mice [5]; 288 h, primed @ 3 mA, 50 Hz, for 12 days): 159 mg/kg
- Corn. Kind. TPE (Mice [5]; primed @ 8 mA, 60 Hz, for 8 days): TPE 4 hours
- subjects who achieved abstinence (humans): 28.0%
- dose required for similar findings (block of cocaine-induced CPP) (Sprague-Dawley rats [6]): 300 mg/kg

Compound: C=C1C[C@H](C(=O)O)C[C@@H]1N [compound 6, (1S,3S)-3-amino-4-methylenyl-1-cyclopentanoic acid]
- inactivation of GABA-AT ([7]; without 2-mercaptoethanol): inactivation of GABA-AT was observed

Compound: N[C@@H]1C=C[C@H](C(=O)O)C1 [compound 1, (1R,4S)-4-amino-cyclopent-2-ene-1-carboxylic acid]
- specificity constant relative to GABA ([7]; substrate of GABA-AT): almost five times greater than that of GABA

Compound: NCCCC(=O)O [GABA, γ-aminobutyric acid]
- IC50 (hGAT-3): 10 µM
- IC50 (hGAT-2): 11 µM
- IC50 (mGAT2): 51 µM
- activation of current in oocytes (human ρ1 GABAC receptors): activated an inward current

Compound: COC(=O)[C@H]1[C@@H](OC(=O)c2ccccc2)C[C@@H]2CC[C@H]1N2C [cocaine, reference compound]
- time spent in the other chamber (Sprague-Dawley rats [8]): 4.8 ± 2.8 min
- time spent in cocaine-paired chamber (Sprague-Dawley rats [8]; p<0.01): 12.2 ± 1.7 min
- reduction of 11C-raclopride binding (Sprague-Dawley rats [9]): 22%

— patent US8969413B2
